Results taken from PubChem BioAssay AID2060902 (Molecular Pharmacology Branch, DTP, NCI, 2025).

System: 485368-065-R3-J5-PDC spheroids with HUVEC/MSC, viability
Experiment: Anticancer human tumor 485368-065-R3-J5-PDC patient-derived pancreatic carcinoma cell line growth inhibition [RAS]
Conditions: for IC50: curve of first compound; for viability, T/C: stronger effect = lower value
How it was run: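 Tumour cells grown as complex spheroids with HUVEC endothelial cells and mesenchymal stem cells, treated with RAS pathway inhibitor combinations. Each agent spans half-log steps from near clinical Cmax, or 10 microM where Cmax is unknown.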
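Further: spheroids exposed to agents for seven days before readout.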

SMILES: C=CC(=O)N1CCN(c2nc(OCC3CCCN3C)nc3c(F)c(-c4nc(N)cc(C)c4C(F)(F)F)c(Cl)cc23)C(C)C1 (centres undefined) + CCn1c(-c2cc(N3CCN(C)CC3)cnc2C(C)OC)c2c3cc(ccc31)-c1csc(n1)CC(NC(=O)C1CC1C)C(=O)N1CCCC(N1)C(=O)OCC(C)(C)C2
- IC50 (second compound 0.000949 µM): < 3.16 nM
- IC50 (second compound 0.003 µM): < 3.16 nM
- IC50 (second compound 0.00949 µM): < 3.16 nM
- IC50 (second compound 0.03 µM): < 3.16 nM
- IC50 (second compound 0.0949 µM): < 3.16 nM
- IC50 (second compound 0.3 µM): < 3.16 nM
- viability, T/C (second compound 0.000949 µM, first compound 0.00316 µM): 32.9%
- viability, T/C (second compound 0.000949 µM, first compound 0.01 µM): 35.6%
- viability, T/C (second compound 0.000949 µM, first compound 0.0316 µM): 36.7%
- viability, T/C (second compound 0.000949 µM, first compound 0.1 µM): 29.5%
- viability, T/C (second compound 0.000949 µM, first compound 0.316 µM): 30.1%
- viability, T/C (second compound 0.000949 µM, first compound 1 µM): 38.9%
- viability, T/C (second compound 0.003 µM, first compound 0.00316 µM): 23.4%
- viability, T/C (second compound 0.003 µM, first compound 0.01 µM): 21.4%
- viability, T/C (second compound 0.003 µM, first compound 0.0316 µM): 21.2%
- viability, T/C (second compound 0.003 µM, first compound 0.1 µM): 20.9%
- viability, T/C (second compound 0.003 µM, first compound 0.316 µM): 20.9%
- viability, T/C (second compound 0.003 µM, first compound 1 µM): 19.6%
- viability, T/C (second compound 0.00949 µM, first compound 0.00316 µM): 17.3%
- viability, T/C (second compound 0.00949 µM, first compound 0.01 µM): 18.3%
- viability, T/C (second compound 0.00949 µM, first compound 0.0316 µM): 15.8%
- viability, T/C (second compound 0.00949 µM, first compound 0.1 µM): 15.6%
- viability, T/C (second compound 0.00949 µM, first compound 0.316 µM): 18%
- viability, T/C (second compound 0.00949 µM, first compound 1 µM): 15.2%
- viability, T/C (second compound 0.03 µM, first compound 0.00316 µM): 12.1%
- viability, T/C (second compound 0.03 µM, first compound 0.01 µM): 11.4%
- viability, T/C (second compound 0.03 µM, first compound 0.0316 µM): 12.5%
- viability, T/C (second compound 0.03 µM, first compound 0.1 µM): 12.9%
- viability, T/C (second compound 0.03 µM, first compound 0.316 µM): 12.8%
- viability, T/C (second compound 0.03 µM, first compound 1 µM): 15.7%
- viability, T/C (second compound 0.0949 µM, first compound 0.00316 µM): 10%
- viability, T/C (second compound 0.0949 µM, first compound 0.01 µM): 12.6%
- viability, T/C (second compound 0.0949 µM, first compound 0.0316 µM): 11.2%
- viability, T/C (second compound 0.0949 µM, first compound 0.1 µM): 9.36%
- viability, T/C (second compound 0.0949 µM, first compound 0.316 µM): 9.84%
- viability, T/C (second compound 0.0949 µM, first compound 1 µM): 12.7%
- viability, T/C (second compound 0.3 µM, first compound 0.00316 µM): 10.8%
- viability, T/C (second compound 0.3 µM, first compound 0.01 µM): 9.38%
- viability, T/C (second compound 0.3 µM, first compound 0.0316 µM): 9%
- viability, T/C (second compound 0.3 µM, first compound 0.1 µM): 8.35%
- viability, T/C (second compound 0.3 µM, first compound 0.316 µM): 10.7%
- viability, T/C (second compound 0.3 µM, first compound 1 µM): 11%

SMILES: CC1(C)CCC(Nc2ncc(C(F)(F)F)c(-c3c[nH]c4c(P(C)(C)=O)c(C#N)ccc34)n2)CN1 (centres undefined) + CCn1c(-c2cc(N3CCN(C)CC3)cnc2C(C)OC)c2c3cc(ccc31)-c1csc(n1)CC(NC(=O)C1CC1C)C(=O)N1CCCC(N1)C(=O)OCC(C)(C)C2
- IC50 (second compound 0.000949 µM): < 0.949 nM
- IC50 (second compound 0.003 µM): < 0.949 nM
- IC50 (second compound 0.00949 µM): < 0.949 nM
- IC50 (second compound 0.03 µM): < 0.949 nM
- IC50 (second compound 0.0949 µM): < 0.949 nM
- IC50 (second compound 0.3 µM): < 0.949 nM
- viability, T/C (second compound 0.000949 µM, first compound 0.000949 µM): 48.5%
- viability, T/C (second compound 0.000949 µM, first compound 0.003 µM): 36.9%
- viability, T/C (second compound 0.000949 µM, first compound 0.00949 µM): 26.8%
- viability, T/C (second compound 0.000949 µM, first compound 0.03 µM): 31%
- viability, T/C (second compound 0.000949 µM, first compound 0.0949 µM): 31.2%
- viability, T/C (second compound 0.000949 µM, first compound 0.3 µM): 30.4%
- viability, T/C (second compound 0.003 µM, first compound 0.000949 µM): 24.4%
- viability, T/C (second compound 0.003 µM, first compound 0.003 µM): 26.2%
- viability, T/C (second compound 0.003 µM, first compound 0.00949 µM): 24.3%
- viability, T/C (second compound 0.003 µM, first compound 0.03 µM): 23.6%
- viability, T/C (second compound 0.003 µM, first compound 0.0949 µM): 26.9%
- viability, T/C (second compound 0.003 µM, first compound 0.3 µM): 27.4%
- viability, T/C (second compound 0.00949 µM, first compound 0.000949 µM): 17.1%
- viability, T/C (second compound 0.00949 µM, first compound 0.003 µM): 19%
- viability, T/C (second compound 0.00949 µM, first compound 0.00949 µM): 19.6%
- viability, T/C (second compound 0.00949 µM, first compound 0.03 µM): 19.9%
- viability, T/C (second compound 0.00949 µM, first compound 0.0949 µM): 24.5%
- viability, T/C (second compound 0.00949 µM, first compound 0.3 µM): 21.1%
- viability, T/C (second compound 0.03 µM, first compound 0.000949 µM): 14%
- viability, T/C (second compound 0.03 µM, first compound 0.003 µM): 18.8%
- viability, T/C (second compound 0.03 µM, first compound 0.00949 µM): 17.4%
- viability, T/C (second compound 0.03 µM, first compound 0.03 µM): 18.6%
- viability, T/C (second compound 0.03 µM, first compound 0.0949 µM): 22.4%
- viability, T/C (second compound 0.03 µM, first compound 0.3 µM): 21.2%
- viability, T/C (second compound 0.0949 µM, first compound 0.000949 µM): 13.2%
- viability, T/C (second compound 0.0949 µM, first compound 0.003 µM): 15.9%
- viability, T/C (second compound 0.0949 µM, first compound 0.00949 µM): 15.7%
- viability, T/C (second compound 0.0949 µM, first compound 0.03 µM): 17%
- viability, T/C (second compound 0.0949 µM, first compound 0.0949 µM): 20.2%
- viability, T/C (second compound 0.0949 µM, first compound 0.3 µM): 23.2%
- viability, T/C (second compound 0.3 µM, first compound 0.000949 µM): 11.7%
- viability, T/C (second compound 0.3 µM, first compound 0.003 µM): 15.8%
- viability, T/C (second compound 0.3 µM, first compound 0.00949 µM): 15.4%
- viability, T/C (second compound 0.3 µM, first compound 0.03 µM): 21.9%
- viability, T/C (second compound 0.3 µM, first compound 0.0949 µM): 19.4%
- viability, T/C (second compound 0.3 µM, first compound 0.3 µM): 22.6%
